This test relates to Cne H99 strain. Description: cell-based anti-Cryptococcus neoformans growth inhibition dose-response assay (resazurin to resorufin fluorescence). To be noted: Cne H99, concentration series 0.02-50 μM, 24 hours incubation. On the procedure:
For primary screening, a cell-based high-throughput screening (HTS) assay was developed for testing the growth inhibition of Cne H99 strain of fungus. […] After standardizing the assay in 96 well plates, it was optimized in a 384-well plate.
The compound library included known bioactives, commercial libraries, and academic molecules. For HTS, the fungal cells were grown in SD broth overnight and diluted in Sabouraud dextrose (SD) broth to an optical density at 600 nm (OD600) of 0.5. […] From this cell suspension, 20 μL of the cells was added to each well of the 384-well assay plate (black, clear bottom) containing test compounds. Plates with test compounds were prepared by adding 20 μL of RPMI-MOPS medium to each well using a liquid dispenser (Thermo Multidrop Combi), followed by transferring 1 μL of the test compounds to all wells of the 22 columns in the assay plate using a robot. Dimethyl sulfoxide (DMSO) as vehicle control or 0.8 μM AmB as positive control was added manually to the remaining two columns using a multichannel pipet. […] Additionally, the absorbance was also read at 600 nm using the plate reader (EnVision, PerkinElmer).
Concentration series (0.02-50 μM) of test compounds and equalizing volume of DMSO were dispensed, using a liquid handler (D300e, Hewlett-Packard), to the 384-well plates. Following the addition of the Cne cells, the assay plates were incubated for 24 hours, followed by a fluorescence reading of resorufin as explained for single-concentration screening. The IC50 was calculated by graphpad prism.

The mark [1] stands for this setting: Cryptococcus neoformans, H99STRAIN.

5 compounds from patent publication US20260224574A1, “ANTIFUNGAL COMPOSITIONS AND METHODS OF USE THEREOF” (ARIZONA BOARD OF REGENTS ON BEHALF OF THE UNIVERSITY OF …, priority 2023, published 2026) can be followed below.

Take `CN1CCC(C(=O)N2CCC3(CCCCc4ccccc4OCCN(Cc4ccccc4)C3)CC2)CC1` [compound 87]: under setting [1], 10.1 µM corresponded to half-maximal inhibition (IC50).
With `CN1c2cc3c(cc2N=C(c2ccc(C(=O)O)cc2)c2ccccc21)C(C)(C)CCC3(C)C` [compound 88], the IC50 (usually the point on the concentration scale where inhibition reaches its midpoint) was 10.1 µM.
On the same count and under the same terms, with `Cc1cc(Nc2nc(NC(C)c3ccc(F)cc3)c(C#N)cc2F)n[nH]1` (centres unmarked) [compound 89] the figure was 10.4 µM; with `C(=N/n1cnnc1)/c1ccc(N(c2ccccc2)c2ccccc2)cc1` [compound 90], 10.5 µM.
In turn, `CCc1ccc(-c2nc3ccccn3c2CNCc2cccc(C)c2)cc1` [compound 91] returned an IC50 under setting [1] of 10.7 µM.
